From PubChem BioAssay AID248 (DTP/NCI, 2004)
“And” between values parts separate entries of the source, which are not always exact repeats. Identical values can stand only once. Inconclusive results and toxic doses are left out. Rule as the data show it: active = T/C of 150% or more; inactive = T/C below 125%.

Test system: L1210 leukemia ip in BDF1 mice, survival T/C
Experiment: NCI In Vivo Anticancer Drug Screen. Data for tumor model L1210 Leukemia (intraperitoneal) in B6D2F1 (BDF1) mice
Conditions: endpoint: mean survival time, higher = longer survival
Summary of the method: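 Transplantable tumor model; survival measured in treated vs vehicle control mice. Value = treated/control.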

[1] = dose: 100.0 mg/kg/injection, schedule: Q04DX002 (ip), vehicle: saline
[2] = dose: 100.0 mg/kg/injection, schedule: Q01DX001 (ip), vehicle: Klucel (hydroxypropylcellulose) (HPC)
[3] = dose: 100.0 mg/kg/injection, schedule: Q04DX003 (ip), vehicle: Klucel (hydroxypropylcellulose) (HPC)
[4] = dose: 200.0 mg/kg/injection, schedule: Q01DX001 (ip), vehicle: Klucel (hydroxypropylcellulose) (HPC)
[5] = dose: 200.0 mg/kg/injection, schedule: Q04DX003 (ip), vehicle: Klucel (hydroxypropylcellulose) (HPC)
[6] = dose: 400.0 mg/kg/injection, schedule: Q01DX001 (ip), vehicle: Klucel (hydroxypropylcellulose) (HPC)
[7] = dose: 400.0 mg/kg/injection, schedule: Q04DX003 (ip), vehicle: Klucel (hydroxypropylcellulose) (HPC)
[8] = dose: 100.0 mg/kg/injection, schedule: Q01DX009 (ip), vehicle: Klucel (hydroxypropylcellulose) (HPC)
[9] = dose: 200.0 mg/kg/injection, schedule: Q01DX009 (ip), vehicle: Klucel (hydroxypropylcellulose) (HPC)
[10] = dose: 400.0 mg/kg/injection, schedule: Q01DX009 (ip), vehicle: Klucel (hydroxypropylcellulose) (HPC)
[11] = dose: 100.0 mg/kg/injection, schedule: Q04DX003 (ip), vehicle: saline with Tween-80
[12] = dose: 200.0 mg/kg/injection, schedule: Q04DX003 (ip), vehicle: saline with Tween-80
[13] = dose: 400.0 mg/kg/injection, schedule: Q04DX003 (ip), vehicle: saline with Tween-80
[14] = dose: 50.0 mg/kg/injection, schedule: Q01DX009 (ip), vehicle: saline with Tween-80

Measured: T/C

N#Cc1ccccc1C(N)=O
inactive: dose: 12.5 mg/kg/injection, schedule: Q04DX002 (ip), vehicle: saline 107 % of control | dose: 25.0 mg/kg/injection, schedule: Q04DX002 (ip), vehicle: saline 98 % of control | dose: 50.0 mg/kg/injection, schedule: Q04DX002 (ip), vehicle: saline 102 % of control | [1] 90 % of control

CC(C)(C)c1cc(/C=N/NC(=O)CNC(=O)Nc2cccc(C(F)(F)F)c2)cc(C(C)(C)C)c1O
inactive: dose: 100.0 mg/kg/injection, schedule: Q01DX001 (ip), vehicle: gum acacia 92 % of control and 94 % of control | dose: 100.0 mg/kg/injection, schedule: Q04DX002 (ip), vehicle: gum acacia 98 % of control and 90 % of control | dose: 100.0 mg/kg/injection, schedule: Q04DX003 (ip), vehicle: gum acacia 99 % of control and 87 % of control | dose: 200.0 mg/kg/injection, schedule: Q01DX001 (ip), vehicle: gum acacia 94 % of control and 90 % of control | dose: 200.0 mg/kg/injection, schedule: Q04DX002 (ip), vehicle: gum acacia 93 % of control | dose: 200.0 mg/kg/injection, schedule: Q04DX003 (ip), vehicle: gum acacia 92 % of control and 96 % of control | dose: 400.0 mg/kg/injection, schedule: Q01DX001 (ip), vehicle: gum acacia 94 % of control and 102 % of control | dose: 400.0 mg/kg/injection, schedule: Q04DX002 (ip), vehicle: gum acacia 93 % of control and 87 % of control | dose: 400.0 mg/kg/injection, schedule: Q04DX003 (ip), vehicle: gum acacia 92 % of control and 89 % of control

O=C(CCCc1ccc(N(CCCl)CCCl)cc1)NCc1ccccc1
inactive: dose: 4.0 mg/kg/injection, schedule: Q12HX018 (ip), vehicle: other 112 % of control | dose: 6.0 mg/kg/injection, schedule: Q12HX018 (ip), vehicle: other 103 % of control | dose: 8.0 mg/kg/injection, schedule: Q12HX018 (ip), vehicle: other 108 % of control

CC1C=CC=CC=C1
inactive: [2] 98 % of control | [3] 102 % of control | [4] 90 % of control | [5] 93 % of control | [6] 92 % of control | [7] 86 % of control

O=C1OCC(Cl)=C1Cl
inactive: dose: 6.25 mg/kg/injection, schedule: Q04DX003 (ip), vehicle: saline 101 % of control | dose: 12.5 mg/kg/injection, schedule: Q04DX003 (ip), vehicle: saline 101 % of control | dose: 25.0 mg/kg/injection, schedule: Q04DX003 (ip), vehicle: saline 103 % of control

CC(=O)c1ccc(N2C(=O)C=CC2=O)cc1
inactive: dose: 25.0 mg/kg/injection, schedule: Q04DX003 (ip), vehicle: Klucel (hydroxypropylcellulose) (HPC) 114 % of control | dose: 50.0 mg/kg/injection, schedule: Q04DX003 (ip), vehicle: Klucel (hydroxypropylcellulose) (HPC) 115 % of control

COc1ccc(N=C(C)CC(C)=O)cc1
inactive: [2] 101 % of control | [8] 108 % of control | [4] 103 % of control | [9] 97 % of control | [6] 101 % of control | [10] 102 % of control

N=C(N)SCc1cccc(Cl)c1
inactive: dose: 25.0 mg/kg/injection, schedule: Q04DX002 (ip), vehicle: saline with Tween-80 100 % of control | dose: 50.0 mg/kg/injection, schedule: Q04DX002 (ip), vehicle: saline with Tween-80 93 % of control | dose: 100.0 mg/kg/injection, schedule: Q04DX002 (ip), vehicle: saline with Tween-80 90 % of control

CSc1nccc(=S)[nH]1
inactive: dose: 50.0 mg/kg/injection, schedule: Q04DX002 (ip), vehicle: Klucel (hydroxypropylcellulose) (HPC) 88 % of control | dose: 100.0 mg/kg/injection, schedule: Q04DX002 (ip), vehicle: Klucel (hydroxypropylcellulose) (HPC) 92 % of control | dose: 200.0 mg/kg/injection, schedule: Q04DX002 (ip), vehicle: Klucel (hydroxypropylcellulose) (HPC) 95 % of control

Cc1cc(=O)cc(S)[nH]1
inactive: dose: 100.0 mg/kg/injection, schedule: Q01DX001 (ip), vehicle: carboxymethylcellulose (CMC) 94 % of control | dose: 200.0 mg/kg/injection, schedule: Q01DX001 (ip), vehicle: carboxymethylcellulose (CMC) 100 % of control | dose: 400.0 mg/kg/injection, schedule: Q01DX001 (ip), vehicle: carboxymethylcellulose (CMC) 91 % of control

Clc1cccc(Cl)c1Br
inactive: [8] 100 % of control | [11] 108 % of control | [9] 100 % of control | [12] 104 % of control | [10] 105 % of control | [13] 98 % of control

COc1ccc(OC(=O)Nc2ccc(C)cc2[N+](=O)[O-])cc1
inactive: [11] 102 % of control | [12] 98 % of control | [13] 93 % of control

O=C(O)C1CCC1(C(=O)O)C(=O)O (centres undefined)
inactive: [1] 94 % of control | dose: 200.0 mg/kg/injection, schedule: Q04DX002 (ip), vehicle: saline 90 % of control | dose: 400.0 mg/kg/injection, schedule: Q04DX002 (ip), vehicle: saline 94 % of control

COC(=O)CC(=O)c1ccc(OCCOc2ccc(C(C)(C)CC(C)(C)C)cc2)c([N+](=O)[O-])c1
inactive: dose: 100.0 mg/kg/injection, schedule: Q01DX009 (ip), vehicle: saline sonified 91 % of control | [3] 93 % of control | dose: 200.0 mg/kg/injection, schedule: Q01DX009 (ip), vehicle: saline sonified 96 % of control | [5] 96 % of control | dose: 400.0 mg/kg/injection, schedule: Q01DX009 (ip), vehicle: saline sonified 95 % of control | [7] 93 % of control

O=C(Nc1ccc(Cl)c(Cl)c1)Oc1ccc(C2CCCCC2)cc1
inactive: [8] 95 % of control | [3] 111 % of control | [9] 95 % of control | [5] 109 % of control | [10] 97 % of control | [7] 101 % of control

C=CC/C(=C/CCC)CCC
inactive: [14] 95 % of control | dose: 100.0 mg/kg/injection, schedule: Q01DX009 (ip), vehicle: saline with Tween-80 100 % of control | dose: 200.0 mg/kg/injection, schedule: Q01DX009 (ip), vehicle: saline with Tween-80 100 % of control

Nc1nccc(Cl)n1
inactive: dose: 12.5 mg/kg/injection, schedule: Q01DX009 (ip), vehicle: saline with Tween-80 89 % of control | dose: 25.0 mg/kg/injection, schedule: Q01DX009 (ip), vehicle: saline with Tween-80 92 % of control | [14] 92 % of control

N#Cc1ccc[n+](CCCl)c1
inactive: dose: 30.0 mg/kg/injection, schedule: Q01DX Z (ip), vehicle: saline 95 % of control

Cc1ccc(Cl)cc1NC(=O)/C=C/c1ccccc1
inactive: [8] 104 % of control | [9] 104 % of control | [10] 102 % of control

CCN(Cc1ccccc1)C(=S)[S-].CCN(Cc1ccccc1)C(=S)[S-].[Zn]
inactive: dose: 100.0 mg/kg/injection, schedule: Q04DX003 (ip), vehicle: saline 91 % of control | dose: 200.0 mg/kg/injection, schedule: Q04DX003 (ip), vehicle: saline 94 % of control | dose: 400.0 mg/kg/injection, schedule: Q04DX003 (ip), vehicle: saline 89 % of control

O=C(Cl)/C=C/c1c(Cl)cccc1Cl
inactive: dose: 75.0 mg/kg/injection, schedule: Q01DX009 (ip), vehicle: Klucel (hydroxypropylcellulose) (HPC) 102 % of control | [3] 103 % of control | dose: 150.0 mg/kg/injection, schedule: Q01DX009 (ip), vehicle: Klucel (hydroxypropylcellulose) (HPC) 100 % of control | [5] 92 % of control | dose: 300.0 mg/kg/injection, schedule: Q01DX009 (ip), vehicle: Klucel (hydroxypropylcellulose) (HPC) 93 % of control
